± gives the expanded uncertainty stated by the source.
Details: Crystal; DTA

- Normal melting temperature: 119.00 ± 0.5 °C
Structure (SMILES): COc1ccc2[nH]c(SCc3ncc(C)c(OC)c3C)nc2c1 [Omeprazole sulfide]

— the NIST ThermoML archive (doi:10.1016/j.fluid.2015.07.038)
